Key:
[1] = test system: Meloidogyne javanica second stage juveniles (J2s); assay: Nematocidal activity: viability of J2 nematodes after 2 days exposure to the compound in a sealed box; assay type: in vivo; conditions: comparison within the series
Source text: In exemplary procedures, the sedentary root-knot nematode from the genus Meloidogyne javanica second stage juveniles (J2s) was propagated on greenhouse-grown nematode-susceptible tomato Lycopersicon esculentum cv. ‘Avigail 870’ (Hazera, Shikmim, Israel), and nematode eggs were bulk-extracted from the roots with 0.05% (v/v) sodium hypochlorite (NaOCl) followed by sucrose flotation and successive sievings through nylon filters of 300, 120, 60, and 30 μm mesh sizes (AD Sinun Technologies, Petach Tikvah, Israel). For hatching J2, extracted eggs were placed on 30-μm sieves (AD Sinun Technologies) in 0.01 M MES (2-(N-morpholino) ethanesulfonic acid hydrate) pH 6.5 buffer under aseptic conditions in darkness for 5 days, and hatching J2s were collected for further experiments.
Seven vials, each containing 300 J2 nematodes with 0.5 mL of 0.01 M 2-(N-morpholino)ethanesulfonic acid (MES) buffer, were exposed to cyclic ketone compounds in order to examine their nematocidal activity and reduction in viability. In addition, a humid environment in a sealed 1 L box was maintained by addition 5 ml of distilled H2O to a 50-mm Petri plate. The box was sealed after compound addition into each 50-mm Petri plate together with 5-250 mg of perlite particles and incubated for 2 days in the dark at 25±1° C. C5 and C6 saturated and α,β-unsaturated cyclic ketones were tested for their nematocidal activity. The J2 nematodes viability was examined following exposure to the cyclic ketone compounds, by a straightforward small-scale nematode extraction method, based on the traditional Baermann funnel method. Briefly, all nematode suspensions were loaded onto 30-μm (AD Sinun Technologies) filters (1.0-1.5 cm height, 1.1-2.0 cm^3 internal area), and the nematodes were washed twice with 300 μL of 0.01 M MES buffer in order to remove any residues. Then, filters holding nematodes were placed into 15 mL Falcon centrifuge tubes, each containing 900 μL of 0.01 M of MES buffer. These filters allow active passage of only living J2s while paralyzed or dead nematodes remain on top of the filter. The whole apparatus including the filter holding the nematodes and the Falcon tubes were placed in the dark for 3 h at 25±1° C. Then, the filters were removed and the viable nematodes, which were able to actively cross the filter toward the 0.01 M of MES buffer, were collected from the Falcon tube and counted using a Nematode Counting Slide (Chalex LLC, Portland, OR, USA) and a SV11 stereomicroscope (Zeiss, Jena, Germany).
Data were analyzed by the JMP 12 software package (SAS Inc., Cary, NC, USA). Mean numbers of viable J2s under various conditions were subjected to one-way analysis of variance (ANOVA), followed by the Tukey-Kramer multiple comparison test, with significance set at P<0.05.

S. rolfsii = assay: Fungicidal activity assay on PDA in sealed Petri dish (growth inhibition and mortality); assay type: cell-based, Sclerotinia rolfsii; conditions: Agroathelia rolfsii; S. rolfsii; NA + number = still viable in the highest concentration tested (given as >); read-out: M - Mortality, minimal concentration that killed the fungus
R. solani = assay: microbe, parasite or virus in culture; assay type: cell-based; conditions: Rhizoctonia solani; R. solani; NA + number = still viable in the highest concentration tested (given as >); read-out: M - Mortality, minimal concentration that killed the fungus
[2] = test system: Fusarium oxysporum f sp. radicis-lycopersici (Forl); assay: Effect on Forl in loam soil in buckets, applied by irrigation system; assay type: in vivo; conditions: open and close conditions, except depth 30 cm at the lowest concentration in close condition
Description: The activity of trans-2-octenal was examined against phytopathogenic fungi and weeds. The experiment was performed in large buckets (110 L), which bottoms were removed, and therefore the loam in the bucket was continuous with the ground. The soil was inoculated one day prior the application of the compound. Soil inoculation was performed as follows: spores of Fusarium oxysporum f sp. radicis-cucumerinum (FORC) were collected from culture plates and 25 mL of spore suspension at concentration of 9×10^5 was mixed with 10 L of tap water and then poured on the soil of each bucket. […] Half of the buckets were sealed with nylon while the other half remained open. Five days later, soil samples from three different depths (10, 20, and 30 cm) were taken from each bucket for fungal isolation and determination of fungal survival. […] After 3 days, the number of colonies was counted. […] Similar results were obtained at close condition, except at depth 30 cm at concentration of 62.5 ppm.
The experiment was repeated with the following modifications: different phytopathogenic fungus—Fusarium oxysporum f sp. radicis-lycopersici (Forl), lower concentrations—31.25, 62.5, and 93.75 ppm, and the application of the compound was done using the irrigation system.

Meloidogyne javanica J2s = assay: Greenhouse nematocidal experiment with susceptible tomato plants in inoculated loam; assay type: in vivo; conditions: 30 ppm in soil, tomato harvested after 8 weeks
Description: The activity of trans-2-octenal against nematodes was examined in a greenhouse experiment using stage 2 juveniles of the rot-knot nematode Meloidogyne javanica. […] After 2 days, the inoculated soil was treated with 30 ppm of trans-2-octenal and incubated for additional 5 days. Then, susceptible tomato plants were planted, and allowed to grow in a growing chamber for 8 weeks. At the end of the experiment, the plants, along with their root systems, were harvested from their pots and evaluated for incidence of root galling. In addition, M. javanica eggs were extracted from each root and counted, and the number of eggs per gram root was calculated. As shown in FIGS. 14A-14D, trans-2-octenal reduced the galling index and the number of eggs per gram root. […] The activity of 2-cyclohexen-1-one against nematodes was examined in a greenhouse experiment using stage 2 juveniles of the rot-knot nematode Meloidogyne javanica. The experiment was performed as described for trans-2-octenal. […] After 2 days, the inoculated soil was treated with 15 or 31 ppm of 2-cyclohexen-1-one and incubated for additional 5 days. Then, susceptible tomato plants were planted, and allowed to grow in a growing chamber for 8 weeks. At the end of the experiment, the plants, along with their root systems, were harvested from their pots and evaluated for incidence of root galling. In addition, M. javanica eggs were extracted from each root and counted, and the number of eggs per gram root was calculated.

tomato strain Ikram = conditions: in vivo, 11 days
Description: An experiment in a larger scale was performed in loam soil in which the seedling were planted directly in the treated plot. The soil was treated with 0, 25, 50, 100, 200, 400, 800, and 1,600 ppm of emulsion of trans-2-octenal. The compound was applied using the irrigation system. A day later, tomato seedling strains Ikram and Abigail and lettuce seedling strain Raviv (10 seedlings each) were planted into the treated soil of each concentration. Eleven days later, the number of viable seedlings was counted.

## CCCCC/C=C/C=O [trans-2-octenal]
[1]
  nematocidal activity in words: relatively less potent nematicide
S. rolfsii
  MFC: 6.25 µg/mL
R. solani
  MFC: 6.25 µg/mL
[2]
  concentration at which elimination of Forl was achieved: 31.25 ppm
Meloidogyne javanica J2s
  galling index: reduced
  number of eggs per gram root: reduced
Tomato strain Ikram
  concentration at which phytotoxic effect was displayed: 800 ppm
